Laboratory results from ChEMBL document CHEMBL4130638, “Discovery of the Polyamine Conjugate with Benzo[ cd]indol-2(1 H)-one as a Lysosome-Targeted Antimetastatic Agent” (J Med Chem, 2018).

What was measured:
Mus musculus = experiment: Toxicity in Balb/c mouse implanted with mouse CT26 cells assessed as changes in body weight at 1 mg/kg, iv for 7 consecutive days starting from day 8 post tumor implantation; format: organism-based; settings: in vivo
CT26 = experiment: Induction of apoptosis in mouse CT26 cells after 24 hrs by acridine orange and ethidium bromide staining based high content screening analysis; format: functional, cell-based
HCT-116 [1] = experiment: Growth inhibition of human HCT116 cells after 24 hrs by MTT assay; format: functional, cell-based
[2] = Drug uptake in human HCT116 cells by confocal microscopic method; format: ADME, cell-based; settings: hct-116
HCT-116 [3] = experiment: Induction of apoptosis in human HCT116 cells assessed as late apoptotic cells at 10 uM after 24 hrs by annexin V-FITC/propidium iodide staining based flow cytometry (reference value: 2.03%); format: functional
HCT-116 [4] = experiment: Downregulation of mTOR protein expression in human HCT116 cells after 24 hrs by Western blot method; format: functional, cell-based

- IC50 (HCT-116 [1]; HCT-116, 24 h): 6.9 µM
- Drug uptake [2]: Dose-dependent effect and Tde
Structure (SMILES): Cl.Cl.Cl.NCCCCNCCCCNCCCCN1C(=O)c2cccc3cccc1c23
- Activity (Mus musculus): Non-Toxic
- Activity (CT26): Dose-dependent effect
- growth inhibition (GI) (HCT-116 [1]): Dose-dependent effect
- Activity (HCT-116 [3]): 27.58%
- Activity (HCT-116 [4]): Dose-dependent effect
